In patent publication US20240002388A1, “PYRIMIDINONE COMPOUNDS AND USES THEREOF” (HUTCHISON MEDIPHARMA LIMITED, priority 2020, published 2024) one finds IC50 data, which are given here for 22 compounds.

For this assay, the system named is IL-1β production in human whole blood. Put plainly: TNF-α, Z-VAD-FMK and SM-164 induced IL-1β production in human whole blood. Format: cell-based. To be noted: Z-VAD-FMK and SM-164 stimulation, 6 hours, IL-1β ELISA. From the text: • Human blood samples were collected by venipuncture from healthy volunteers, with signed consent from each volunteer before blood collection; • RPMI 1640 medium: L-Glutamine, 1.5 g/L NaHCO3, 2.383 g/L HEPES solution, 0.11 g/L sodium pyruvate and 4.5 g/L Glucose; Gibco, catalog: A10491-01; • Dimethyl sulfoxide (DMSO): Sigma, catalog: D2650; • Recombinant Human TNF-alpha Protein (hTNF-α): R&D system, catalog: 210-TA-100; • Pan-Caspase inhibitor (Z-VAD-FMK): Selleckchem, catalog: S7023; • Smac Mimetic-164 (SM-164): APEXBIO, catalog: A8815; • Human IL-1 beta/IL-1F2 Quantikine ELISA Kit: R&D systems, catalog: SLB50; • Envision Multimode Microplate Reader: PerkinElmer; • 96-well clear flat bottom TC-treated culture microplate: Falcon, catalog: 353072; • 96-well Microplate (U bottom): Corning, catalog: 3799. 2. Assay Protocol Human whole blood was anti-coagulated with heparin and used in human whole blood assay immediately. Fresh heparinized human whole blood was diluted with an equal volume of RPMI 1640 medium, aliquoted the diluted blood into 96-well plate, 90 μL each well.
Compound preparation: dilute the compound stock using DMSO and perform 3-fold serial dilution to 8-points. Then transfer the diluted compounds to RPMI 1640 medium and mix.
Compound treatment and stimulation: transfer 5 μL of the diluted compound to appropriate wells of the plate. The final concentration of the compound was 1.0, 0.333, 0.111, 0.037, 0.012, 0.004, 0.0014 and 0.0005 μM, and each well contained 0.3% DMSO. For positive and negative control wells, add 5 μL of RPMI 1640 medium with 3% DMSO. And incubate the plate at 5% CO2, 37° C. for 1 hour.
Then 5 μL of the mixture of stimuli (TNF-α, Z-VAD-FMK and SM-164) was added with the final concentration of […] except negative control wells. The negative control wells were added same volume of RPMI 1640 medium.
After incubation 6 hours in a 37° C./5% CO2 incubator, each well was added with 100 μL of PBS, and centrifuged at 4000 rmp for 10 minutes. The 110 μL of supernatant per well was collected, and stored at −80° C. for ELISA.
Prepared 100 μL of IL-1β standards (in duplicate) in designated wells. ELISA was operated according to manufacturer's instruction. In the end, measured the ELISA plate absorbance at 450 nm/570 nm using Envision.
Inhibition rates of compounds on TNF-α, Z-VAD-FMK and SM-164 induced IL-1β Production in human whole blood were calculated as follows: • IL-1β level was calculated with IL-1β standard curve (standard curve fitting equation is four parameters logistic model)
[formula] • IL-1β levelstimulated: the concentration of IL-1β in the positive control wells which added TNF-α, Z-VAD-FMK, SM-164 and no compound; • IL-1β levelnon-stimulated: the concentration of IL-1β in the negative control wells without the treatment of TNF-α, Z-VAD-FMK, SM-164 and compound; • IL-1β levelcompound: the concentration of IL-1β in the wells with the treatment of TNF-α, Z-VAD-FMK, SM-164 and compound. • The IC50 value of compound is determined with XLFit 5 software (ID Business Solutions Limited).

Turning to `CC(C)n1cncc(-c2ccc(C3(NC(=O)c4ncc5cnn(C(C)C6CC6)c5n4)CC3)cc2)c1=O` (racemic) [Compound 59, 1-(1-cyclopropylethyl)-N-(1-(4-(1-i-propyl-6-oxo-1,6-dihydropyrimidin-5-yl)phenyl)cyclopropyl)-1H-pyrazolo[3,4-d]pyrimidine-6-carboxamide], the IC50 came to 4 nM.
Under `CC(C)n1ncc2cnc(C(=O)NC3(c4ccc(-c5cncn([C@H](C)C(F)(F)F)c5=O)cc4F)CC3)nc21` (stereo in doubt) [Compound 46] stands 6 nM; under `CC(C)n1ncc2cnc(C(=O)NC3(c4ccc(-c5cncn([C@@H](C)C(F)(F)F)c5=O)cc4F)CC3)nc21` (stereo in doubt) [Compound 47], 9 nM; under `CC(C)n1cncc(-c2ccc(C3(NC(=O)c4ncc5cnn(C(C)C)c5n4)CC3)cc2)c1=O` [Compound 29, 1-isopropyl-N-(1-(4-(1-isopropyl-6-oxo-1,6-dihydropyrimidin-5-yl)phenyl)cyclopropyl)-1H-pyrazolo[3,4-d]pyrimidine-6-carboxamide], 4 nM.
Consider `CC(C)n1ncc2cnc(C(=O)NC3(c4ccc(-c5cncn(CC6CC6)c5=O)cc4)CC3)nc21` [Compound 36], for which the IC50 was found to be 4 nM.
Under `CC(C)n1ncc2cnc(C(=O)NC3(c4ccc(-c5cncn(C6COC6)c5=O)cc4)CC3)nc21` [Compound 41] stands 18 nM; under `CC(C)n1cncc(-c2ccc(C3(NC(=O)c4ncc5cnn(C6COC6)c5n4)CC3)cc2)c1=O` [Compound 60], 10 nM.
`CC(C)n1cncc(-c2ccc(C3(NC(=O)c4ncc5cnn(CC6CC6)c5n4)CC3)cc2)c1=O` [Compound 61] showed an IC50 of 11 nM.
Under `O=C(NC1(c2ccc(-c3cncn(CC4CC4)c3=O)cc2)CC1)c1ncc2cnn(CC3CC3)c2n1` [Compound 64] stands 12 nM; under `C[C@H](n1cncc(-c2ccc(C3(NC(=O)c4ncc5cnn(CC6CC6)c5n4)CC3)cc2)c1=O)C(F)(F)F` [Compound 68], 43 nM; under `C[C@@H](n1cncc(-c2ccc(C3(NC(=O)c4ncc5cnn(CC6CC6)c5n4)CC3)cc2)c1=O)C(F)(F)F` [Compound 70], 8 nM.
The result for `C[C@H](n1cncc(-c2ccc(C3(NC(=O)c4ncc5cnn(CC6CC6)c5n4)CC3)c(F)c2)c1=O)C(F)(F)F` [Compound 71] reads 38 nM; that for `CC(C)n1cncc(-c2ccc(C3(NC(=O)c4ncc5cnn(CC6CC6)c5n4)CC3)c(F)c2)c1=O` [Compound 72], 39 nM.
Turning to `CC(C)n1cncc(-c2ccc(C3(NC(=O)c4ncc5cnn(CC6CC6)c5n4)CC3)cc2F)c1=O` [Compound 73], the IC50 was found to be 21 nM.
`CC(C)n1ncc2cnc(C(=O)NC3(c4ccc(-c5cncn(CC6CC6)c5=O)cc4F)CC3)nc21` [Compound 74]: half-maximal inhibition (IC50) required 13 nM.
The result for `CC(C)n1ncc2cnc(C(=O)NC3(c4ccc(-c5cncn(CC6CC6)c5=O)c(F)c4)CC3)nc21` [Compound 75] reads 11 nM; that for `C[C@@H](n1cncc(-c2ccc(C3(NC(=O)c4ncc5cnn(CC6CC6)c5n4)CC3)c(F)c2)c1=O)C(F)(F)F` [Compound 76], 9 nM; that for `CC(C)n1ncc2cnc(C(=O)NC3(c4ccc(-c5cncn([C@H](C)C6CC6)c5=O)cc4)CC3)nc21` [Compound 84, (R)—N-(1-(4-(1-(1-cyclopropylethyl)-6-oxo-1,6-dihydropyrimidin-5-yl)phenyl)cyclopropyl)-1-i-propyl-1H-pyrazolo[3,4-d]pyrimidine-6-carboxamide], 5 nM.
Take `CC(C)n1ncc2cnc(C(=O)NC3(c4ccc(-c5cncn([C@@H](C)C6CC6)c5=O)cc4)CC3)nc21` [Compound 85, (S)—N-(1-(4-(1-(1-cyclopropylethyl)-6-oxo-1,6-dihydropyrimidin-5-yl)phenyl)cyclopropyl)-1-i-propyl-1H-pyrazolo[3,4-d]pyrimidine-6-carboxamide]: half-maximal inhibition (IC50) required 5 nM. That is a single-digit nanomolar value.
Under `CC(C)n1ncc2cnc(C(=O)NC3(c4ccc(-c5cncn(CC6(C)CC6)c5=O)cc4)CC3)nc21` [Compound 86] stands 13 nM; under `CC(C)n1cncc(-c2ccc(C3(NC(=O)c4ncc5cnn([C@H](C)C6CC6)c5n4)CC3)cc2)c1=O` [Compound 89, (R)-1-(1-cyclopropylethyl)-N-(1-(4-(1-i-propyl-6-oxo-1,6-dihydropyrimidin-5-yl)phenyl)cyclopropyl)-1H-pyrazolo[3,4-d]pyrimidine-6-carboxamide], 18 nM; under `CC(C)n1cncc(-c2ccc(C3(NC(=O)c4ncc5cnn([C@@H](C)C6CC6)c5n4)CC3)cc2)c1=O` [Compound 90, (S)-1-(1-cyclopropylethyl)-N-(1-(4-(1-i-propyl-6-oxo-1,6-dihydropyrimidin-5-yl)phenyl)cyclopropyl)-1H-pyrazolo[3,4-d]pyrimidine-6-carboxamide], 7 nM.
